Measured values as given in patent US20060040870A1, “Enhancement of apoptosis by caspase-9 inhibitors” (priority 2004, published 2006).
The star is where a group is joined. Cbz = O=C(OCc1ccccc1)*; CH2F = FC*

How the values were obtained:
leukemia/lymphoma cells = assay: Pro-apoptotic activity of caspase inhibitor sequences (Table 2); type: cell-based; set-up: key: “−” is no activity; ++++ is maximum activity
Source text: Caspases are constitutively express in cells, and are usually in their pro-form. In response to an incident, such as irradiation or chemotherapy, the pro-form of the caspase is converted into the activated state. Certain compounds are known that can inhibit caspases. For example, the pan-caspase (PCi) VAD can block all caspases. […] For example, C2i inhibits caspase-2. This particular inhibitor is very dose dependent.

BLIN-4L cells = assay: Apoptosis by Annexin V staining and flow cytometry, BLIN-4L; type: cell-based, human; conditions: 50 μM
Experimental: Flow cytometry. Quantitation of apoptotic events was conducted using a FACS Calibur (BD Immunocytometry Systems). All analyses were conducted on cells with lymphoid light scatter characteristics (i.e., low to medium forward scatter and low 90° side scatter).
iii. Annexin V. FITC-labeled Annexin V (BD Pharmingen, San Diego, Calif.) was used to detect external phosphatidylserine residues appearing on the external surface of early apoptotic cells (Koopman Blood. 1994;84:1415-1420). Cells were stained according to the manufacturers recommendations.
General experimental strategy. BLIN cell lines were removed from fibroblast monolayers, washed once and resuspended to 7.5×10^5/ml in X-VIVO 10. Two hundred μL of resuspended cells were added to 96-well flat-bottom microtiter plates (ISC Bioexpress, Kaysville, Vt.), followed by 0.5-1.0 μL of caspase inhibitors in DMSO. An identical volume of DMSO alone was added to separate wells as a vehicle control. This final DMSO concentration of 0.25-0.5% vol/vol had no adverse affect on any of the BLIN cell lines. At the indicated times the entire content of individual wells was harvested and stained in the fluorescent protocols described above.
The inventors carried out experiments to test the influence of specific amino acid substitutions on the proapoptotic activity Z-LEHD-fmk. […]

[1] = tested on: RAMOS Burkitt lymphoma cell line; assay: Apoptosis by Annexin V staining and flow cytometry, RAMOS; type: cell-based, human; conditions: 50 μM, 18 hours
BLIN-4E cells = assay: Apoptosis by Annexin V staining and flow cytometry, BLIN-4E; type: cell-based, human; conditions: 50 μM, 18 hours
Experimental: (§1) FIG. 4 is a pair of graphs showing the effect of […] on various cell lines, as determined by Annexin V staining and flow cytometry. The cells included the B-cell precursor ALL cell lines […], and NALM-6, the RAMOS, RAJI, and DAUDI Burkitt lymphoma cell lines, the CCRF-CEM, JURKAT, and H9 T lymphoma cell lines, the K-562 erythroleukemia cell line, and resting or activated (i.e., CD3/CD28 cross-linked) normal human T cells. […] Flow cytometry. Quantitation of apoptotic events was conducted using a FACS Calibur (BD Immunocytometry Systems). All analyses were conducted on cells with lymphoid light scatter characteristics (i.e., low to medium forward scatter and low 90° side scatter). iii. Annexin V. […] Cells were stained according to the manufacturers recommendations.

[2] = tested on: JURKAT T lymphoma cell line; assay: Apoptosis by Annexin V staining and flow cytometry, JURKAT; type: cell-based; conditions: 50 μM, 18 hours
Experimental: as §1

[3] = tested on: K-562 erythroleukemia cell line; assay: Apoptosis by Annexin V staining and flow cytometry, K-562; type: cell-based; conditions: K-562, 50 μM, 18 hours
Experimental: as §1

How did the “Pro-apoptotic Activity (after 24 hours)” value (leukemia/lymphoma cells) turn out when “Z-LEHD-fmk (Cbz-LEHD-CH2F; SMILES CC(C)C[C@H](NC(=O)OCc1ccccc1)C(=O)N[C@@H](CCC(=O)O)C(=O)N[C@@H](Cc1c[nH]cn1)C(=O)N[C@@H](CC(=O)O)C(=O)CF) [C9i]” was run?
The value was “++++”.

What about the “apoptosis (Annexin V and TMRE staining) versus DMSO vehicle” value (BLIN-4L cells; BLIN-4L removed from adherent fibroblasts, 2-hour time points up to 8 hours) of the same substance?
Its value is “promoted apoptosis in BLIN-4L, albeit not as pronounced as in BLIN-3”.

What about the “sensitivity (fold-increase in Annexin V+ cells vs DMSO)” value (BLIN-4L cells; BLIN-4L, 18 hours) of the same substance?
The value was “sensitive”.

And the “sensitivity (fold-increase in Annexin V+ cells vs DMSO)” value [1]?
The value was “extremely sensitive”.

And the “sensitivity (fold-increase in Annexin V+ cells vs DMSO)” value (BLIN-4E cells)?
The value was “sensitive”.

And the “sensitivity (fold-increase in Annexin V+ cells vs DMSO)” value [2]?
The value was “sensitive”.

And the “sensitivity (fold-increase in Annexin V+ cells vs DMSO)” value [3]?
Its value is “insensitive”.
